Measured values from US12497408B2, “Tetracyclic compounds and methods for the treatment of Zika virus infection” (priority 2021, dated 2025).

Each molecule was assayed on ZIKV (assay: ZIKV reporter virus-based antiviral screening on Huh7 cells). Settings: Huh7 cells infected with recombinant luciferase reporter ZIKV (MOI about 0.1), 48 hrs, luciferase signal; read-out: EC50.
Format: cell-based, Zika virus
Method in brief: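 Huh7 cells in 2% FBS assay medium infected at MOI about 0.1 with Renilla or Nano luciferase ZIKV premixed with nine-point compound dilutions, 48 hrs at 37° C. Luciferase signal normalized to DMSO controls as 100%; viability optionally by CellTiter-Glo with Rlu virus.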

| Compound | EC50 [nM] |
| --- | --- |
| COC(=O)N[C@H](C(=O)N1C[C@@H](F)C[C@H]1c1nc(Cl)c(-c2cc3c4c(c2)OCc2cc(-c5[nH]c([C@@H]6C[C@H](F)CN6C(=O)[C@@H](NC(=O)OC)C(C)(C)C(F)(F)F)nc5Cl)cc(c2-4)OC3)[nH]1)C(C)(C)C(F)(F)F [Compound 52, dimethyl ((2S,2′S)-((3S,3′S,5S,5′S)-((5,10-dihydrochromeno[5,4,3-cde]chromene-2,7-diyl)bis(4-chloro-1H-imidazole-5,2-diyl))bis(3-fluoropyrrolidine-5,1-diyl))bis(4,4,4-trifluoro-3,3-dimethyl-1-oxobutane-l,2-diyl))dicarbamate] | 103 |

Same assay, conditions: Zika virus, Huh-7, 48 h, Huh7 cells infected with recombinant luciferase reporter ZIKV (MOI about 0.1), luciferase signal

| Compound | EC50 [nM] |
| --- | --- |
| CC[C@H](C)[C@H](NC(=O)OC)C(=O)N1CC2(CC2)C[C@H]1c1nc(Cl)c(-c2cc3c4c(c2)OCc2cc(-c5[nH]c([C@@H]6CC7(CC7)CN6C(=O)[C@@H](NC(=O)OC)[C@@H](C)CC)nc5C(C)C)cc(c2-4)OC3)[nH]1 [Compound 16, methyl ((2S,3S)-1-((S)-6-(5-(7-(4-chloro-2-((S)-5-((methoxycarbonyl)-L-isoleucyl)-5-azaspiro[2.4]heptan-6-yl)-1H-imidazol-5-yl)-5,10-dihydrochromeno[5,4,3-cde]chromen-2-yl)-4-isopropyl-1H-imidazol-2-yl)-5-azaspiro[2.4]heptan-5-yl)-3-methyl-1-oxopentan-2-yl)carbamate] | 2.3 |
| COC[C@H]1C[C@@H](c2nc(Cl)c(-c3cc4c5c(c3)OCc3cc(-c6[nH]c([C@@H]7C[C@H](COC)CN7C(=O)[C@@H](NC(=O)OC)C(C)C)nc6Cl)cc(c3-5)OC4)[nH]2)N(C(=O)[C@@H](NC(=O)OC)C(C)C)C1 [Compound 45, dimethyl ((2S,2′S)-((3S,3′S,5S,5′S)-((5,10-dihydrochromeno[5,4,3-cde]chromene-2,7-diyl)bis(4-chloro-1H-imidazole-5,2-diyl))bis(3-(methoxymethyl)pyrrolidine-5,1-diyl))bis(3-methyl-1-oxobutane-1,2-diyl))dicarbamate] | 19.3 |
| COC(=O)N[C@H](C(=O)N1CC2(CC2)C[C@H]1c1nc(Cl)c(-c2cc3c4c(c2)OCc2cc(-c5[nH]c([C@@H]6CC7(CC7)CN6C(=O)[C@@H](NC(=O)OC)C(C)(C)C(F)(F)F)nc5C(C)C)cc(c2-4)OC3)[nH]1)C(C)(C)C(F)(F)F [Compound 85, methyl ((S)-1-((S)-6-(5-(7-(4-chloro-2-((S)-5-((S)-4,4,4-trifluoro-2-((methoxycarbonyl)amino)-3,3-dimethylbutanoyl)-5-azaspiro[2.4]heptan-6-yl)-1H-imidazol-5-yl)-5,10-dihydrochromeno[5,4,3-cde]chromen-2-yl)-4-isopropyl-1H-imidazol-2-yl)-5-azaspiro[2.4]heptan-5-yl)-4,4,4-trifluoro-3,3-dimethyl-1-oxobutan-2-yl)carbamate] | 1.4 |
| COC(=O)N[C@H](C(=O)N1[C@H](c2nc(Cl)c(-c3cc4c5c(c3)OCc3cc(-c6[nH]c([C@@H]7C[C@@H]8C[C@@H]8N7C(=O)[C@@H](NC(=O)OC)C(C)(C)C(F)(F)F)nc6Cl)cc(c3-5)OC4)[nH]2)C[C@@H]2C[C@@H]21)C(C)(C)C(F)(F)F [Compound 12, dimethyl ((2S,2′S)-((1S,1′S,3S,3′S,5S,5′S)-((5,10-dihydrochromeno[5,4,3-cde]chromene-2,7-diyl)bis(4-chloro-1H-imidazole-5,2-diyl))bis(2-azabicyclo[3.1.0]hexane-3,2-diyl))bis(4,4,4-trifluoro-3,3-dimethyl-1-oxobutane-1,2-diyl))dicarbamate] | 11.9 |
| COC(=O)N[C@H](C(=O)N1CC(C)(C)C[C@H]1c1nc(Cl)c(-c2cc3c4c(c2)OCc2cc(-c5[nH]c([C@@H]6CC(C)(C)CN6C(=O)[C@@H](NC(=O)OC)C(C)C)nc5Cl)cc(c2-4)OC3)[nH]1)C(C)C [Compound 7, dimethyl ((2S,2′S)-((5S,5′S)-((5,10-dihydrochromeno[5,4,3-cde]chromene-2,7-diyl)bis(4-chloro-1H-imidazole-5,2-diyl))bis(3,3-dimethylpyrrolidine-5,1-diyl))bis(3-methyl-1-oxobutane-1,2-diyl))dicarbamate] | 4.2 |
| COC(=O)N[C@H](C(=O)N1[C@H](c2ncc(-c3cc4c5c(c3)OCc3cc(-c6[nH]c([C@@H]7C[C@@H]8CCC[C@@H]8N7C(=O)[C@@H](NC(=O)OC)C(C)C)nc6Cl)cc(c3-5)OC4)[nH]2)C[C@@H]2CCC[C@@H]21)C(C)C [Compound 30, methyl ((S)-1-((2S,3aS,6aS)-2-(4-chloro-5-(7-(2-((2S,3aS,6aS)-1-((methoxycarbonyl)-L-valyl)octahydrocyclopenta[b]pyrrol-2-yl)-1H-imidazol-5-yl)-5,10-dihydrochromeno[5,4,3-cde]chromen-2-yl)-1H-imidazol-2-yl)hexahydrocyclopenta[b]pyrrol-1(2H)-yl)-3-methyl-1-oxobutan-2-yl)carbamate] | 8 |
| COC(=O)N[C@H](C(=O)N1[C@H](c2nc(Cl)c(-c3cc4c5c(c3)OCc3cc(-c6[nH]c([C@@H]7C[C@@H]8CCC[C@@H]8N7C(=O)[C@@H](NC(=O)OC)C(C)C)nc6Cl)cc(c3-5)OC4)[nH]2)C[C@@H]2CCC[C@@H]21)C(C)C [Compound 29, dimethyl ((2S,2′S)-((2S,2′S,3aS,3a′S,6aS,6a′S)-((5,10-dihydrochromeno[5,4,3-cde]chromene-2,7-diyl)bis(4-chloro-1H-imidazole-5,2-diyl))bis(hexahydrocyclopenta[b]pyrrole-2,1(2H)-diyl))bis(3-methyl-1-oxobutane-1,2-diyl))dicarbamate] | 1.8 |
| COC(=O)N[C@H](C(=O)N1[C@H](c2nc(Cl)c(-c3cc4c5c(c3)OCc3cc(-c6[nH]c([C@@H]7C[C@@H]8CCC[C@@H]8N7C(=O)[C@@H](NC(=O)OC)C(C)(C)C(F)(F)F)nc6Cl)cc(c3-5)OC4)[nH]2)C[C@@H]2CCC[C@@H]21)C(C)(C)C(F)(F)F [Compound 35, dimethyl ((2S,2′S)-((2S,2′S,3aS,3a′S,6aS,6a′S)-((5,10-dihydrochromeno[5,4,3-cde]chromene-2,7-diyl)bis(4-chloro-1H-imidazole-5,2-diyl))bis(hexahydrocyclopenta[b]pyrrole-2,1(2H)-diyl))bis(4,4,4-trifluoro-3,3-dimethyl-1-oxobutane-1,2-diyl))dicarbamate] | 4.5 |
| CC[C@H](C)[C@H](NC(=O)OC)C(=O)N1[C@H](C)CC[C@H]1c1nc(Cl)c(-c2cc3c4c(c2)OCc2cc(-c5[nH]c([C@@H]6CC[C@@H](C)N6C(=O)[C@@H](NC(=O)OC)[C@@H](C)CC)nc5Cl)cc(c2-4)OC3)[nH]1 [Compound 63, dimethyl ((2S,2′S,3S,3′S)-((2R,2′R,5S,5′S)-((5,10-dihydrochromeno[5,4,3-cde]chromene-2,7-diyl)bis(4-chloro-1H-imidazole-5,2-diyl))bis(2-methylpyrrolidine-5,1-diyl))bis(3-methyl-1-oxopentane-1,2-diyl))dicarbamate] | 16.4 |
| CC[C@H](C)[C@H](NC(=O)OC)C(=O)N1[C@@H](C)CC[C@H]1c1nc(Cl)c(-c2cc3c4c(c2)OCc2cc(-c5[nH]c([C@@H]6CC[C@H](C)N6C(=O)[C@@H](NC(=O)OC)[C@@H](C)CC)nc5Cl)cc(c2-4)OC3)[nH]1 [Compound 28, dimethyl ((2S,2′S,3S,3′S)-((2S,2′S,5S,5′S)-((5,10-dihydrochromeno[5,4,3-cde]chromene-2,7-diyl)bis(4-chloro-1H-imidazole-5,2-diyl))bis(2-methylpyrrolidine-5,1-diyl))bis(3-methyl-1-oxopentane-1,2-diyl))dicarbamate] | 1.6 |
| CC[C@@H](C)[C@H](NC(=O)OC)C(=O)N1[C@@H](C)CC[C@H]1c1nc(Cl)c(-c2cc3c4c(c2)OCc2cc(-c5[nH]c([C@@H]6CC[C@H](C)N6C(=O)[C@@H](NC(=O)OC)[C@H](C)CC)nc5Cl)cc(c2-4)OC3)[nH]1 [Compound 33, dimethyl ((2S,2′S,3R,3′R)-((2S,2′S,5S,5′S)-((5,10-dihydrochromeno[5,4,3-cde]chromene-2,7-diyl)bis(4-chloro-1H-imidazole-5,2-diyl))bis(2-methylpyrrolidine-5,1-diyl))bis(3-methyl-1-oxopentane-1,2-diyl))dicarbamate] | 0.9 |
| COC(=O)N[C@H](C(=O)N1C[C@H](C)C[C@H]1c1nc(Cl)c(-c2cc3c4c(c2)OCc2cc(-c5[nH]c([C@@H]6C[C@@H](C)CN6C(=O)[C@@H](NC(=O)OC)C(C)C)nc5C(C)C)cc(c2-4)OC3)[nH]1)C(C)C [Compound 84, methyl ((S)-1-((2S,4R)-2-(5-(7-(4-chloro-2-((2S,4R)-1-((methoxycarbonyl)-L-valyl)-4-methylpyrrolidin-2-yl)-1H-imidazol-5-yl)-5,10-dihydrochromeno[5,4,3-cde]chromen-2-yl)-4-isopropyl-1H-imidazol-2-yl)-4-methylpyrrolidin-1-yl)-3-methyl-1-oxobutan-2-yl)carbamate] | 3.3 |
| CC[C@H](C)[C@H](NC(=O)OC)C(=O)N1C[C@@H](C)C[C@H]1c1ncc(-c2cc3c4c(c2)OCc2cc(-c5[nH]c([C@@H]6C[C@H](C)CN6C(=O)[C@@H](NC(=O)OC)[C@@H](C)CC)nc5Cl)cc(c2-4)OC3)[nH]1 [Compound 67, methyl ((2S,3S)-1-((2S,4S)-2-(4-chloro-5-(7-(2-((2S,4S)-1-((methoxycarbonyl)-L-isoleucyl)-4-methylpyrrolidin-2-yl)-1H-imidazol-5-yl)-5,10-dihydrochromeno[5,4,3-cde]chromen-2-yl)-1H-imidazol-2-yl)-4-methylpyrrolidin-1-yl)-3-methyl-1-oxopentan-2-yl)carbamate] | 23.9 |
| COC(=O)N[C@H](C(=O)N1[C@H](C)CC[C@H]1c1nc(Cl)c(-c2cc3c4c(c2)OCc2cc(-c5[nH]c([C@@H]6CC[C@@H](C)N6C(=O)[C@@H](NC(=O)OC)C(C)(C)C(F)(F)F)nc5Cl)cc(c2-4)OC3)[nH]1)C(C)(C)C(F)(F)F [Compound 65, dimethyl ((2S,2′S)-((2R,2′R,5S,5′S)-((5,10-dihydrochromeno[5,4,3-cde]chromene-2,7-diyl)bis(4-chloro-1H-imidazole-5,2-diyl))bis(2-methylpyrrolidine-5,1-diyl))bis(4,4,4-trifluoro-3,3-dimethyl-1-oxobutane-1,2-diyl))dicarbamate] | 71.7 |
